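Cells were grown in 96-well plates and exposed to each compound for 48 hours at five concentrations; endpoints were interpolated linearly between bracketing concentrations, or set to the highest concentration if not reached. GI50 = concentration required for 50% inhibition of growth.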 Calls of active or inactive are those of the source. No stated cut-off is given here; in the data, active = GI50 up to about 1.1 µM and inactive = higher.
Experiments:
Assay in all cases: inhibition of tumour cell growth, NCI panel, 48 h
U-251 = tested on: U-251
SN12C = tested on: SN12C
NCI-H460 = tested on: NCI-H460
IGROV-1 = tested on: IGROV-1
NCI-H522 = tested on: NCI-H522
COLO 205 = tested on: COLO 205
EKVX = tested on: EKVX
OVCAR-3 = tested on: OVCAR-3
RPMI-8226 = tested on: RPMI-8226
SK-MEL-2 = tested on: SK-MEL-2
OVCAR-4 = tested on: OVCAR-4
Malme-3M = tested on: Malme-3M
ACHN = tested on: ACHN
UO-31 = tested on: UO-31
CCRF-CEM = tested on: CCRF-CEM
KM-20L2 = tested on: KM-20L2
HCC 2998 = tested on: HCC 2998
PC-3 = tested on: PC-3
MDA-MB-231 = tested on: MDA-MB-231
MCF7 = tested on: MCF7

| Compound | GI50 (U-251) | GI50 (SN12C) | GI50 (NCI-H460) | GI50 (IGROV-1) | GI50 (NCI-H522) | GI50 (COLO 205) | GI50 (EKVX) | GI50 (OVCAR-3) | GI50 (RPMI-8226) | GI50 (SK-MEL-2) | GI50 (OVCAR-4) | GI50 (Malme-3M) | GI50 (ACHN) | GI50 (UO-31) | GI50 (CCRF-CEM) | GI50 (KM-20L2) | GI50 (HCC 2998) | GI50 (PC-3) | GI50 (MDA-MB-231) | GI50 (MCF7) |
| --- | --- | --- | --- | --- | --- | --- | --- | --- | --- | --- | --- | --- | --- | --- | --- | --- | --- | --- | --- | --- |
| COC(=O)CCC(=O)NC1C2CC3CC(C2)CC1C3 (stereo not drawn) | > 100 µM (inactive) | > 100 µM (inactive) | > 100 µM (inactive) | > 100 µM (inactive) | > 100 µM (inactive) | > 100 µM (inactive) | > 100 µM (inactive) | > 100 µM (inactive) | > 100 µM (inactive) | > 100 µM (inactive) | > 100 µM (inactive) | > 100 µM (inactive) | > 100 µM (inactive) | > 100 µM (inactive) | > 100 µM (inactive) | > 100 µM (inactive) | > 100 µM (inactive) |  |  |  |
| COc1ncnc2c(NC3OC(CO)C(O)C3O)ncnc12 (stereo not drawn) | 2.51 µM (inactive) | 0.428 µM (active) | 0.279 µM (active) | 0.28 µM (active) | 1.53 µM (inactive) | 0.307 µM (active) | 0.596 µM (active) | 0.733 µM (active) | 0.371 µM (active) | 2.47 µM (inactive) | 0.713 µM (active) | 2.74 µM (inactive) | 0.201 µM (active) | 0.984 µM (active) | < 0.0209 µM (active) | 0.407 µM (active) | 1.26 µM (inactive) | 0.493 µM (active) | 0.149 µM (active) | 0.041 µM (active) |
| Clc1ccc(-c2nnc3c4nnc(-c5ccc(Cl)cc5Cl)n4c4ccccc4n23)c(Cl)c1 | > 100 µM (inactive) | > 100 µM (inactive) | > 100 µM (inactive) | > 100 µM (inactive) | > 100 µM (inactive) | > 100 µM (inactive) | > 100 µM (inactive) | > 100 µM (inactive) | > 100 µM (inactive) | > 100 µM (inactive) | > 100 µM (inactive) | > 100 µM (inactive) | > 100 µM (inactive) | > 100 µM (inactive) | > 100 µM (inactive) | > 100 µM (inactive) | > 100 µM (inactive) |  |  |  |
| Cc1c[nH]c2c(O)cc3c(c12)[C@H](CCl)CN3C(=O)c1cc2cc(NC(=O)Nc3ccc4[nH]c(C(=O)N5C[C@@H](CCl)c6c5cc(O)c5[nH]cc(C)c65)cc4c3)ccc2[nH]1 [BIZELESIN] |  | 0.378 µM (active) | < 0.001 µM (active) | 19.4 µM (inactive) | < 0.001 µM (active) | 8.91 µM (inactive) | > 100 µM (inactive) | 18.6 µM (inactive) | 0.00131 µM (active) | 34.4 µM (inactive) | 17.3 µM (inactive) | 13.7 µM (inactive) | 0.139 µM (active) | < 0.001 µM (active) | 0.274 µM (active) | < 0.001 µM (active) | 0.00109 µM (active) | 33.9 µM (inactive) | 26.5 µM (inactive) | 0.578 µM (active) |

Source: ChEMBL document CHEMBL1201862, “PubChem BioAssay data set” (2004)
